Values of other authors in patent US20090214462A1, “COCKCROACH JELLY BAIT” (priority 2004, published 2009).

System: cockroaches
Conditions: kill by intake; general statement

Structure (SMILES)	Time until cockroaches die after intake
OB(O)O [Boric acid]	one to eight
CCOP(=S)(OCC)Oc1nc(Cl)c(Cl)cc1Cl [Chlorpyrifos]	2 to 3 days
